Laboratory results published in paper PMC11645656, “MRGPRX4 mediates phospho-drug associated pruritus in a humanized mouse model” (Science translational medicine, 2024).
Several values for one entry are separate records, joined by “and”; a condition that tells them apart may be missing. Equal entries are not always repeated.

Tests used:
MRGPRX4 (S83) = biological target: T1, MRGPRX4 (S83) (Homo sapiens, UniProt Q96LA9, L83S); test: EC50 determination, intracellular calcium mobilization in MRGPRX4 stably expressed HEK293 cells (FLIPR Calcium 5, Flexstation-3); type: cell-based; conditions: for Fig. 1D dose-response, calcium response at Concentration (M): individual replicate values
T1 construct: expressed in transfected cells
In short: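 EC50 came from a four-parameter logistic fit to averaged triplicate responses, each response being maximum post-stimulation signal less baseline. Intracellular calcium was monitored with Calcium 5 dye in HBSS with 20 mM HEPES, pH 7.4, after 1 h dye loading at 37 °C, using stably transfected HEK293 cells and parental controls.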

NP2-WT mice = test: Itch behavioral study (scratching bouts after subcutaneous nape injection) in littermate control NP2-WT mice; type: in vivo; conditions: 30 min after injection of 50 μl 10 mM into the nape, each cell one mouse
[1] = ref ClinicalTrials.gov Identifier: NCT00327392; cited from earlier work
MRGPRX4 WT (S83) = MRGPRX4 WT (S83) (Homo sapiens, UniProt Q96LA9, L83S); test: PRESTO-Tango β-arrestin recruitment assay, HTLA cells stably expressing WT (S83) MRGPRX4; type: cell-based; parameters: expressed in transfected cells; conditions: for PRESTO-Tango response (fig. S1), single replicate: HTLA::MRGPRX4; for fig. S7 response (raw signal), concentration-response: WT, single replicate
MRGPRX4 WT (S83), sequence (Q96LA9 whole entry L83S): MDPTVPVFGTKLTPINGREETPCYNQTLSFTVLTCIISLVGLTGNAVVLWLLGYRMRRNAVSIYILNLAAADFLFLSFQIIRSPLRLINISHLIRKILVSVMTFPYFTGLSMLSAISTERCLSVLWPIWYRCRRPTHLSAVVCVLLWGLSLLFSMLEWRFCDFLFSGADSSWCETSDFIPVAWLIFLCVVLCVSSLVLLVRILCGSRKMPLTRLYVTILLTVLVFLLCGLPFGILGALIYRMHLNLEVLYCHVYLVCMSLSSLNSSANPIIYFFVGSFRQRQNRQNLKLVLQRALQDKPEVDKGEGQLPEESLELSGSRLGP

T1 sequence (Q96LA9 whole entry L83S): as above

CC(C)c1cccc(C(C)C)c1OCOP(=O)(O)O [Fospropofol]
EC50 (MRGPRX4 (S83)): 3.78 nM
Fig. 1D dose-response, calcium response at Concentration (M) (MRGPRX4 (S83); 390.6 pM): 1.887 and 7.675 and 17.3467 and 28.1293 and 25.4823 and 35.7983 and -3.6673 and 11.7957 and 11.3767
Fig. 1D dose-response, calcium response at Concentration (M) (MRGPRX4 (S83); 781.2 pM): 26.5827 and 9.949 and 22.6817 and 47.5243 and 43.9493 and 46.7693 and 30.8217 and 49.6317 and 45.8127
Fig. 1D dose-response, calcium response at Concentration (M) (MRGPRX4 (S83); 1.5625e-9 M): 74.3117 and 80.9857 and 81.1437 and 128.989 and 99.4103 and 141.332 and 62.3957 and 66.3277 and 70.4507
Fig. 1D dose-response, calcium response at Concentration (M) (MRGPRX4 (S83); 3.125e-9 M): 97.9827 and 97.6007 and 113.013 and 161.554 and 132.577 and 128.455 and 112.923 and 102.472 and 92.5087
Fig. 1D dose-response, calcium response at Concentration (M) (MRGPRX4 (S83); 6.25e-9 M): 129.465 and 134.099 and 141.914 and 173.201 and 168.912 and 206.791 and 144.704 and 134.885 and 117.377
Fig. 1D dose-response, calcium response at Concentration (M) (MRGPRX4 (S83); 1.25e-8 M): 164.422 and 179.515 and 157.084 and 234.098 and 206.128 and 222.155 and 172.571 and 101.371 and 130.276
Fig. 1D dose-response, calcium response at Concentration (M) (MRGPRX4 (S83); 2.5e-8 M): 193.287 and 213.245 and 222.211 and 313.329 and 290.374 and 297.501 and 184.525 and 188.459 and 188.843
Fig. 1D dose-response, calcium response at Concentration (M) (MRGPRX4 (S83); 5e-8 M): 209.793 and 233.98 and 204.052 and 317.065 and 340.21 and 331.701 and 193.877 and 181.409 and 188.341
Fig. 1D dose-response, calcium response at Concentration (M) (MRGPRX4 (S83); 1e-7 M): 231.301 and 222.41 and 222.053 and 368.09 and 352.14 and 353.772 and 173.973 and 182.603 and 208.392
Fig. 1D dose-response, calcium response at Concentration (M) (MRGPRX4 (S83); 2e-7 M): 241.094 and 221.904 and 183.593 and 346.939 and 358.59 and 369.748 and 151.356 and 187.22 and 148.627
MRGPRX4 agonist activity / calcium signaling (MRGPRX4 (S83); MRGPRX4-expressing HEK293 cells): potent agonist of MRGPRX4
Hill coefficient (MRGPRX4 (S83); dose-response curve fitting, table S1): 0.800
Scratching bouts of individual animals (NP2-WT mice): 2 and 38 and 3 and 10 and 15 and 17 and 76 and 40 and 18 and 43
Patients who reported paresthesia [1]: 53.6%
Patients who reported pruritus [1]: 26.0%
PRESTO-Tango response (fig. S1), single replicate (MRGPRX4 WT (S83); concentration 1.95e-9 M): 0.05347 and 0.06522 and 0.05931 and 0.2207 and 0.1773 and 0.1674 and 0.1338 and 0.1758 and 0.0967
PRESTO-Tango response (fig. S1), single replicate (MRGPRX4 WT (S83); concentration 3.91e-9 M): 0.1053 and 0.08982 and 0.09599 and 0.3062 and 0.2141 and 0.1584 and 0.1973 and 0.1505 and 0.1812
PRESTO-Tango response (fig. S1), single replicate (MRGPRX4 WT (S83); concentration 7.81e-9 M): 0.09268 and 0.116 and 0.1017 and 0.3688 and 0.253 and 0.2802 and 0.1468 and 0.2156 and 0.1585
PRESTO-Tango response (fig. S1), single replicate (MRGPRX4 WT (S83); concentration 1.56e-8 M): 0.2132 and 0.2887 and 0.213 and 0.6375 and 0.7915 and 0.6641 and 0.3649 and 0.3666 and 0.1947
PRESTO-Tango response (fig. S1), single replicate (MRGPRX4 WT (S83); concentration 3.13e-8 M): 0.293 and 0.3131 and 0.2408 and 1.844 and 1.563 and 1.804 and 0.7421 and 0.6696 and 0.4151
PRESTO-Tango response (fig. S1), single replicate (MRGPRX4 WT (S83); concentration 6.25e-8 M): 0.5602 and 0.5719 and 0.4853 and 3.825 and 3.698 and 3.023 and 1.231 and 1.143 and 1.136
PRESTO-Tango response (fig. S1), single replicate (MRGPRX4 WT (S83); concentration 1.25e-7 M): 0.9649 and 0.9632 and 0.8205 and 5.958 and 5.765 and 4.1962 and 2.249 and 2.15 and 1.832
PRESTO-Tango response (fig. S1), single replicate (MRGPRX4 WT (S83); concentration 2.5e-7 M): 1.521 and 1.3 and 1.661 and 7.755 and 5.82 and 6.8361 and 3.176 and 3.046 and 2.687
PRESTO-Tango response (fig. S1), single replicate (MRGPRX4 WT (S83); concentration 5e-7 M): 1.9 and 1.632 and 1.827 and 8.423 and 7.014 and 7.51 and 3.752 and 3.569 and 3.3596
PRESTO-Tango response (fig. S1), single replicate (MRGPRX4 WT (S83); concentration 1e-6 M): 2.509 and 2.322 and 1.947 and 8.611 and 7.367 and 6.973 and 3.852 and 4.064 and 3.742
PRESTO-Tango response (fig. S1), single replicate (MRGPRX4 WT (S83); concentration 2e-6 M): 2.446 and 2.467 and 2.134 and 8.437 and 7.773 and 6.136 and 3.188 and 3.088 and 4.194
fig. S7 response (raw signal), concentration-response (MRGPRX4 WT (S83); 1.95e-9 M): 16738 and 13375 and 17578.5 and 9669.59 and 5346.95 and 6521.98 and 5931.28 and 22070.2 and 17734.5
fig. S7 response (raw signal), concentration-response (MRGPRX4 WT (S83); 3.91e-9 M): 15842.1 and 19726.2 and 15050.8 and 18116.6 and 10530.6 and 8981.76 and 9599.26 and 30619.8 and 21413.5
fig. S7 response (raw signal), concentration-response (MRGPRX4 WT (S83); 7.81e-9 M): 28015.3 and 14682.6 and 21560.1 and 15853.2 and 9267.54 and 11599.7 and 10170.8 and 36884.4 and 25297.6
fig. S7 response (raw signal), concentration-response (MRGPRX4 WT (S83); 1.56e-8 M): 66409.6 and 36485.8 and 36662.8 and 19473.7 and 21324 and 28869.2 and 21303.6 and 63745.9 and 79152.7
fig. S7 response (raw signal), concentration-response (MRGPRX4 WT (S83); 3.13e-8 M): 180426 and 74208.2 and 66960.2 and 41510.5 and 29299.2 and 31309.9 and 24081.1 and 184359 and 156258
fig. S7 response (raw signal), concentration-response (MRGPRX4 WT (S83); 6.25e-8 M): 302326 and 123092 and 114256 and 113554 and 56022.5 and 57189.8 and 48533.4 and 382536 and 369774
fig. S7 response (raw signal), concentration-response (MRGPRX4 WT (S83); 1.25e-7 M): 419620 and 224898 and 215037 and 183215 and 96490.1 and 96321.7 and 82049.1 and 595774 and 576456
fig. S7 response (raw signal), concentration-response (MRGPRX4 WT (S83); 2.5e-7 M): 683610 and 317574 and 304633 and 268745 and 152100 and 129974 and 166066 and 775519 and 581976
fig. S7 response (raw signal), concentration-response (MRGPRX4 WT (S83); 5e-7 M): 751045 and 375202 and 356942 and 335960 and 190041 and 163176 and 182733 and 842325 and 701403
fig. S7 response (raw signal), concentration-response (MRGPRX4 WT (S83); 1e-6 M): 697307 and 385223 and 406436 and 374152 and 250882 and 232214 and 194658 and 861126 and 736707
fig. S7 response (raw signal), concentration-response (MRGPRX4 WT (S83); 2e-6 M): 613596 and 318811 and 308756 and 419448 and 244609 and 246673 and 213444 and 843724 and 777268
